Experimental data taken from patent publication US6914045B2, “Glycopeptide antibiotics” (Wyeth Holdings Corporation, priority 2001, dated 2005).
Converted amounts (≈) assume the structure as drawn.

Tests used:
Experiment in all cases: in vitro antibacterial evaluation, MIC by broth dilution
Type in all cases: cell-based
Staphylococcus sp. = conditions: broth dilution, 18 hours at 35° C.
Method in brief: (§1)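 Test organisms, which included recent clinical isolates resistant to methicillin, penicillin and/or vancomycin, were inoculated at 5×10^5 CFU/mL into Muller-Hinton II […] containing antibiotic at 64-0.06 μg/mL. Minimum inhibitory concentrations were then read as the lowest level inhibiting growth.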

Streptococcus sp. = conditions: broth dilution, 18 hours at 35° C.
Method in brief: as §1

Enterococcus sp. = conditions: broth dilution, 18 hours at 35° C.
Method in brief: as §1

Escherichia coli = conditions: 18 hours at 35° C.
Method in brief: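 Read-out: the lowest concentration at which the test strain fails to grow. Serial dilutions (64-0.06 μg/mL) in Muller-Hinton II […], 5×10^5 CFU/mL inoculum, NCCLS M7-A2 procedure.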

MIC Coagulase Negative Staphylococcus (GC 4547) (Staphylococcus sp.): 8 µg/mL (≈ 5.77 µM) | MIC Coagulase Negative Staphylococcus (GC 4548) (Staphylococcus sp.): 4 µg/mL (≈ 2.89 µM) | MIC Coagulase Negative Staphylococcus (GC 4549) (Staphylococcus sp.): 4 µg/mL (≈ 2.89 µM) | MIC Coagulase Negative Staphylococcus (GC 4551) (Staphylococcus sp.): 8 µg/mL (≈ 5.77 µM) | MIC Staphylococcus aureus (ATCC 29213) (Staphylococcus sp.): 16 µg/mL (≈ 11.5 µM) | MIC Staphylococcus aureus (GC 1131) (Staphylococcus sp.): 32 µg/mL (≈ 23.1 µM) | MIC Staphylococcus aureus (GC 4541) (Staphylococcus sp.): 8 µg/mL (≈ 5.77 µM) | MIC Staphylococcus aureus (GC 4542) (Staphylococcus sp.): 8 µg/mL (≈ 5.77 µM) | MIC Staphylococcus aureus (GC 4544) (Staphylococcus sp.): 8 µg/mL (≈ 5.77 µM) | MIC Staphylococcus aureus (GC 4545) (Staphylococcus sp.): 8 µg/mL (≈ 5.77 µM) | MIC Staphylococcus aureus-SMITH (GC 4543) (Staphylococcus sp.): 8 µg/mL (≈ 5.77 µM) | MIC Staphylococcus aureus (ATCC 29213) (Staphylococcus sp.; strain ATCC 29213): 16 µg/mL (≈ 11.5 µM) | MIC Staphylococcus aureus (GC 1131) (Staphylococcus sp.; strain GC 1131): 32 µg/mL (≈ 23.1 µM) | MIC Staphylococcus aureus (GC 4541) (Staphylococcus sp.; strain GC 4541): 8 µg/mL (≈ 5.77 µM) | MIC Staphylococcus aureus (GC 4542) (Staphylococcus sp.; strain GC 4542): 8 µg/mL (≈ 5.77 µM) | MIC Staphylococcus aureus (GC 4544) (Staphylococcus sp.; strain GC 4544): 8 µg/mL (≈ 5.77 µM) | MIC Staphylococcus aureus (GC 4545) (Staphylococcus sp.; strain GC 4545): 8 µg/mL (≈ 5.77 µM) | MIC Coagulase Negative Staphylococcus (GC 4547) (Staphylococcus sp.; strain GC 4547): 8 µg/mL (≈ 5.77 µM) | MIC Coagulase Negative Staphylococcus (GC 4548) (Staphylococcus sp.; strain GC 4548): 4 µg/mL (≈ 2.89 µM) | MIC Coagulase Negative Staphylococcus (GC 4549) (Staphylococcus sp.; strain GC 4549): 4 µg/mL (≈ 2.89 µM) | MIC Coagulase Negative Staphylococcus (GC 4551) (Staphylococcus sp.; strain GC 4551): 8 µg/mL (≈ 5.77 µM) | MIC Staphylococcus aureus-SMITH (GC 4543) (Staphylococcus sp.; strain SMITH GC 4543): 8 µg/mL (≈ 5.77 µM) | MIC Streptococcus agalactiae (GC 4564) (Streptococcus sp.; strain GC 4564): 8 µg/mL (≈ 5.77 µM) | MIC Streptococcus pyogenes (ID-3187) (Streptococcus sp.; strain ID-3187): 4 µg/mL (≈ 2.89 µM) | MIC Enterococcus avium (GC 4558) (Enterococcus sp.; Enterococcus avium (GC 4558)): 64 µg/mL (≈ 46.2 µM) | MIC Enterococcus faecalis (ATCC 29212) (Enterococcus sp.; Enterococcus faecalis (ATCC 29212)): 64 µg/mL (≈ 46.2 µM) | MIC Enterococcus faecalis (GC 4553) (Enterococcus sp.; Enterococcus faecalis (GC 4553)): 64 µg/mL (≈ 46.2 µM) | MIC Enterococcus faecalis (GC 4554) (Enterococcus sp.; Enterococcus faecalis (GC 4554)): >64 µg/mL | MIC Enterococcus faecium (GC 2243) (Enterococcus sp.; Enterococcus faecium (GC 2243)): 64 µg/mL (≈ 46.2 µM) | MIC Enterococcus faecium (GC 4556) (Enterococcus sp.; Enterococcus faecium (GC 4556)): 64 µg/mL (≈ 46.2 µM) | MIC Enterococcus faecium (GC 4557) (Enterococcus sp.; Enterococcus faecium (GC 4557)): 8 µg/mL (≈ 5.77 µM) | MIC Enterococcus faecalis (ATCC 29212) (Enterococcus sp.; strain ATCC 29212): 64 µg/mL (≈ 46.2 µM) | MIC Enterococcus faecalis (GC 2242) (Enterococcus sp.; strain GC 2242): 64 µg/mL (≈ 46.2 µM) | MIC Enterococcus faecium (GC 2243) (Enterococcus sp.; strain GC 2243): 64 µg/mL (≈ 46.2 µM) | MIC Enterococcus faecalis (GC 4552) (Enterococcus sp.; strain GC 4552): 64 µg/mL (≈ 46.2 µM) | MIC Enterococcus faecalis (GC 4553) (Enterococcus sp.; strain GC 4553): 64 µg/mL (≈ 46.2 µM) | MIC Enterococcus faecalis (GC 4554) (Enterococcus sp.; strain GC 4554): >64 µg/mL | MIC Enterococcus faecium (GC 4556) (Enterococcus sp.; strain GC 4556): 64 µg/mL (≈ 46.2 µM) | MIC Enterococcus faecium (GC 4557) (Enterococcus sp.; strain GC 4557): 8 µg/mL (≈ 5.77 µM) | MIC Enterococcus avium (GC 4558) (Enterococcus sp.; strain GC 4558): 64 µg/mL (≈ 46.2 µM) | MIC Escherichia coli (ATCC 25922) (Escherichia coli; Escherichia coli (ATCC 25922)): >64 µg/mL | MIC Escherichia coli (GC 4559) (Escherichia coli; Escherichia coli (GC 4559)): 64 µg/mL (≈ 46.2 µM) | MIC Escherichia coli (GC 4560) (Escherichia coli; Escherichia coli (GC 4560)): 4 µg/mL (≈ 2.89 µM)
Structure (SMILES): CC(C)CC(=O)OC1C(O)C(CO)OC(OC2C(CO)OC(Oc3ccc(CC4NC(=O)C(C(C)c5cccs5)NC(=O)CNC(=O)C(CO)NC(=O)C(C(O)C5CNC(=N)N5C5OC(CO)C(O)C(O)C5O)NC(=O)C(C(O)C5CNC(=N)N5)NC4=O)cc3)C(O)C2O)C1O (stereo not drawn) [Example 265b, Cyclo[3-(2-thienyl)-2-aminobutanoyl-O-[4-O-[3-O-(3-methylbutanoyl)hexopyranosyl]hexoipyranosyl]tyrosyl-3-(2-iminoimidazolidin-4-yl)seryl-3-(3-hexolpyranosyl-2-iminoimidazolidin-4-yl)serylserylglycyl]]
MIC Staphylococcus haemolyticus (GC 4546) (Staphylococcus sp.): 8 µg/mL (≈ 5.77 µM) | MIC Staphylococcus haemolyticus (GC 4546) (Staphylococcus sp.; strain GC 4546): 8 µg/mL (≈ 5.77 µM)
